Measured values reported in patent publication US20230026232A1, “AHR INHIBITORS AND USES THEREOF” (Ikena Oncology, Inc., priority 2019, published 2023).
pIC50: −log10 of the molar value.

Legend:
[1] = Phase 1 dose-escalation study: interim cohort pharmacokinetics; type: in vivo, human; details: for dose proportionality of PK: Cycle 2 Day 1 (C2D1)
Method: Serial blood samples are obtained to characterize the plasma PK of Compound A and its major active metabolites. The initial sampling strategy is based on the predicted human PK of this compound. If in the course of evaluating the PK, it is determined that an alternative sampling scheme would be more informative, then that alternative sampling scheme may be implemented if the total amount of blood and blood draws obtained for PK is not increased. Moreover, the total number of samples may be decreased at any time if the initial sampling scheme is considered unnecessarily intensive.
Interim cohort pharmacokinetics were assessed on parent (Compound A) and two active metabolites (Compound B and Compound C). […] Compound B metabolite ratio is increased on C2D1 in cohorts above 200 mg dosages. […] Without wishing to be bound or limited by theory, elimination rate limited kinetics likely contributing to the accumulation of Compound B through on-target inhibition of CYP1A1.

[2] = target: T1, AHR (Homo sapiens, UniProt P35869); experiment: HepG2 DRE-Luc reporter assay, VAF347-stimulated luciferase expression; type: cell-based; design: endogenous in cells; host or cells: HepG2 DRE-Luc reporter cell line; details: 80 nM VAF347, n=2
T1 sequence (P35869 11-848): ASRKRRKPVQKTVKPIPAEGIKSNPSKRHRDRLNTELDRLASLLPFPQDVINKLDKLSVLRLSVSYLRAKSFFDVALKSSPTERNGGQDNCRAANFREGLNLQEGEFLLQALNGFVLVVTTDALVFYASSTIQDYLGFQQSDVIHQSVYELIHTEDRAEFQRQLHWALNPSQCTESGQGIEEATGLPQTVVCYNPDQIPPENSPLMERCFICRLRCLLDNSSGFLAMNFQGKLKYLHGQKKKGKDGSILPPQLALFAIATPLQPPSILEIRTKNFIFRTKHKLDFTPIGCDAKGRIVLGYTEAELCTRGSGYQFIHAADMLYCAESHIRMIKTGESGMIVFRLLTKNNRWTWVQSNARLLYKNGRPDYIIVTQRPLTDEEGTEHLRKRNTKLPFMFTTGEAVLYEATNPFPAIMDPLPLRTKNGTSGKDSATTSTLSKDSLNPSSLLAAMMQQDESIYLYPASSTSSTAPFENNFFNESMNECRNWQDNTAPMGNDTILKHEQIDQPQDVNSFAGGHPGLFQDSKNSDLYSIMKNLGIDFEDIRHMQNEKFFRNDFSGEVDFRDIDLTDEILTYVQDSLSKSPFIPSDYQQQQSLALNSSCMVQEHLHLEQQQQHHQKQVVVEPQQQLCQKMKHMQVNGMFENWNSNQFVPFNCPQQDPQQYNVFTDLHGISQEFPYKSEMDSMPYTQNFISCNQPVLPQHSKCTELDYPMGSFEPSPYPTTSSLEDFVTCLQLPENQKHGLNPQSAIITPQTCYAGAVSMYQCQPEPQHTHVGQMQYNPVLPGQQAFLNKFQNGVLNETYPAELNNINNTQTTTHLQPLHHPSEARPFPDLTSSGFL
Method: In vitro experiments were conducted to examine the inhibitory activity of Compound A for AHR-mediated transcriptional activation in the HepG2 DRE-Luc reporter cell line. This human hepatoma cell line stably expresses a luciferase reporter gene under control of AHR-responsive DRE enhancer elements (Han, 2004). HepG2 DRE-Luc reporter cells were treated with 80 nM VAF347 to activate AHR.
The inhibitory activity of the human Compound A metabolites, Compound B and Compound C was also determined in the HepG2 DRE-Luc cell line. Reporter cells were stimulated with 80 nM VAF347 and each metabolite at multiple concentrations.

SMILES | ratio to Compound A on C2D1 ([1]; 400 mg and 800 mg dose) | dose proportionality of PK [1] | accumulation with repeat dosing ([1]; repeat dosing above 200 mg) | AUC compared with Compound A ([1]; repeated dosing, 2/3 subjects at 400 and 800 mg) | pIC50 [2] | ratio to Compound A (AUC) ([1]; 400 mg and 800 mg dose)
CC(C)(O)c1cnn2c(N[C@@H]3CCc4[nH]c5ccccc5c4C3)nc(-c3cncc(F)c3)nc12 [Compound B] | 1.3-1.4 × parent | greater than dose proportional | Accumulation of Compound B observed | greater than Compound A | 7.64 | 
C=C(C)c1cnn2c(N[C@@H]3CCc4[nH]c5ccccc5c4C3)nc(-c3cncc(F)c3)nc12 [Compound C] |  | greater than dose proportional |  |  | 6.67 | 15-20 % of parent
